Experimental data as given in patent US6603023B2 (priority 1996, dated 2003).
Where two headings read alike, the source gives them in different places. Marks after values point to notes of the source that are not given here.

Legend:
[1] = test system: DC-3F/ADX; assay: cells; type: cell-based, hamster
Outline: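 Cell protein content measured by sulforhodamine B staining after trichloroacetic acid fixation, read at 570 nm; duplicate runs of six to seven concentrations fitted by median-effect analysis. Lines are actinomycin D-resistant DC-3F hamster lung sublines (ADII, ADX), kept under selecting drug in RPMI 1640-10% FBS.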

[2] = test system: murine leukemic P388/0; assay: XTT cytotoxicity, P388/0; type: cell-based; details: Table 1C; XTT, 72 h; read-out: IC50
Description: The DC-3F hamster lung fibroblast cell line and its actinomycin D-selected sublines (DC-3F/ADII and DC-3F/ADX) were obtained from the Memorial Sloan-Kettering Cancer Center (MSKCC).
(§1) The drug-resistant cell lines were continuously cultured in the presence of the selecting agent, AD, DX, VBL or VM to maintain the drug resistant phenotypes. […] All cells were cultured in RPMI 1640-10% FBS at 37° C. 5% CO2 (see below).
The cells were cultured at an initial density of 5×10^4 cells/mL. They were maintained in a 5% CO2-humidified atmosphere at 37° C. in RPMI-1640 medium (GIBCO-BRL, Gaithersburg, Md.) containing penicillin (100 U/mL), streptomycin ([…]) (GIBCO-BRL) and 10% heat inactivate fetal bovine serum. Culture for cell suspension (such as for CCRF-CEM, P388 and sublines), were performed by the XTT-microculture tetrazonium method (Scudiero, D. A. et al., Cancer Res. 1988, 48, 4827-4833) in duplicate in 96-well microtiter plates.
2′,3′-Bis(methoxy-4-nitro-5-sufophenyl)-5-[(phenylamino)carbonyl]2H-tetrazolium hyudroxide (XTT) was prepared at 1 mg/mL in prewarmed (37° C.) medium without serum. Phenazine methosulfate (PMS) and fresh XTT were mixed together to obtain 0.025 mM PMS-XTT solution (25 μL of the stock 5 mM PMS was added per 5 mL of 1 mg/mL XTT). Following a 72 h incubation, 50 μL of the assay aliquots were added to each well of the cell culture. After incubation at 37° C. for 4 h, absorbance at 450 nm and 630 nm was measured with a microplate reader (EL340, Bio-Tek Instruments, Inc., Winooski, Vt.).

[3] = test system: SK-N-FI; assay: cells; type: cell-based, human; details: Table 1C
Description: as §1
(§2) The cytotoxicity of the drug toward the monolayer cell cultures (such as DC-3F, MCF-7, SK-N-As and sublines) was determined in 96-well microtiter plates by the SRB method as described by Skehan and co-workers (Skehan, P., et al., J. Natl. Cancer Inst. 1990, 82, 1107-1112) for measuring the cellular protein content. Cultures were fixed with trichloroacetic acid and then stained for 30 min with 0.4% suforhodamine B dissolved in 1% acetic acid. Unbound dye was removed by acetic acid washes, and the protein-bound dye was extracted with an unbuffered Tris base (tris(hydroxy-methyl)aminomethane) for determination of absorbance at 570 nm in a 96-well microtiter plate reader. The experiments were carried out in duplicate. Each run entailed six to seven concentrations of the tested drugs. Data were analyzed with the median-effect plot (Chou, T.-C. & Talalay, P. T. (1984) Adv. Enzyme Regul. 22, 27-55) using a previously described computer program (Chou, J., & Chou T.-C. 1987, Dose-effect analysis with microcomputers: Quantitation of ED50, synergism, antagonism, low-dose risk, reception-ligand binding and enzyme kinetics, IBM-PC software and manual, Biosoft, Cambridge, U.K.).

[4] = test system: MCF-7; assay: SRB cytotoxicity, MCF-7; type: cell-based, human; details: Table 1C; SRB, 72 h; read-out: IC50
Description: as §2

[5] = test system: human mammary carcinoma MX-1 xenograft
Description: DMSO was used as a vehicle for epothilones. Each mouse received ≦40 μL DMSO in all experiments.
Athymic nude mice (nu/nu) were used for MX-1 and MCF-7/Adr human mammary carcinoma xenografts. Mice were obtained from Taconic Laboratory Animals and Service (Germantown, N.Y.: outbred, Swiss background).

[6] = 15 mg/kg i.p. Q2Dx5 from day 7, day 11
[7] = 15 mg/kg i.p. Q2Dx5 from day 7, day 13
[8] = 15 mg/kg i.p. Q2Dx5 from day 7, day 15
[9] = 15 mg/kg i.p. Q2Dx5 from day 7, day 17
[10] = 25 mg/kg i.p. Q2Dx5 from day 7, day 11
[11] = 25 mg/kg i.p. Q2Dx5 from day 7, day 13
[12] = 25 mg/kg i.p. Q2Dx5 from day 7, day 15
[13] = 25 mg/kg i.p. Q2Dx5 from day 7, day 17
[14] = 35 mg/kg i.p. Q2Dx5 from day 9, day 13
[15] = 35 mg/kg i.p. Q2Dx5 from day 9, day 15
[16] = 35 mg/kg i.p. Q2Dx5 from day 9, day 17
[17] = 35 mg/kg i.p. Q2Dx5 from day 9, day 19
[18] = 35 mg/kg i.p. d8,10,12,14,16, day 10
[19] = 35 mg/kg i.p. d8,10,12,14,16, day 12
[20] = 35 mg/kg i.p. d8,10,12,14,16, day 14
[21] = 35 mg/kg i.p. d8,10,12,14,16, day 16
[22] = 35 mg/kg i.p. d8,10,12,14,16, day 18

SMILES: C/C1=C/C[C@@H](/C(C)=C/c2csc(C)n2)OC(=O)C[C@H](O)C(C)(C)C(=O)[C@H](C)[C@@H](O)[C@@H](C)CCC1 [Desoxyepothilone B, desoxyepothilone B]
- fold resistance vs parent DC-3F ([1]; DC-3F/ADX cells): 0.9 fold
- folds of resistance (IC50 ratio vs parent cell line) ([1]; Table 1C, DC-3F/ADX vs DC-3F): (0.9x)
- IC50 ([1]; Table 1C, SRB, 72 h, read-out: IC50): 0.91 nM
- IC50 [2]: 6.8 nM
- folds of resistance (IC50 ratio vs parent cell line) ([3]; SK-N-FI vs SK-N-As): (2.2x)
- IC50 ([3]; SRB, 72 h, read-out: IC50): 46 nM
- IC50 [4]: 2.9 nM
- Toxicity Death ([5]; 15 mg/kg i.p. Q2Dx5 from day 7): 0/6
- Average Body Weight Change [5, 6]: +0.8 g
- Average Tumor Size (T/C) [5, 6]: 0.65
- Average Body Weight Change [5, 7]: +1.1 g
- Average Tumor Size (T/C) [5, 7]: 0.46
- Average Body Weight Change [5, 8]: +1.6 g
- Average Tumor Size (T/C) [5, 8]: 0.49**
- Average Body Weight Change [5, 9]: +1.5 g
- Average Tumor Size (T/C) [5, 9]: 0.41**
- Toxicity Death ([5]; 25 mg/kg i.p. Q2Dx5 from day 7): 0/6
- Average Body Weight Change [5, 10]: +0.4 g
- Average Tumor Size (T/C) [5, 10]: 0.38*
- Average Body Weight Change [5, 11]: +0.7 g
- Average Tumor Size (T/C) [5, 11]: 0.11**
- Average Body Weight Change [5, 12]: +1.0 g
- Average Tumor Size (T/C) [5, 12]: 0.05***
- Average Body Weight Change [5, 13]: +0.7 g
- Average Tumor Size (T/C) [5, 13]: 0.04****
- mice tumor-free (no detectable tumor) on day 35 ([5]; 25 mg/kg i.p. days 7-15): one out of six
- average tumor volume reduction ([5]; 25 mg/kg i.p. days 7-15, day 17): ≤ 96%
- mice tumor-free (no detectable tumor) on day 35 ([5]; 25 mg/kg i.p. days 7-15, listed as dEpo B): #One out of six mice with no detectable tumor on day 35;
- mice with no detectable tumor on day 16 ([5]; 35 mg/kg Q2Dx5 i.p. from day 8): two out of ten
- mice with no detectable tumor on day 26 ([5]; 35 mg/kg d8-16 then 40 mg/kg Q2Dx5 from day 18): five out of ten
- mice remaining tumor-free on day 60 ([5]; 35 mg/kg d8-16 then 40 mg/kg Q2Dx5 from day 18, of ten): three
- mice tumor-free up to day 80 ([5]; 35 mg/kg d8-16 then 40 mg/kg d18-26 i.p.): 3/10
- mice with markedly suppressed tumors ([5]; 35 mg/kg d8-16 then 40 mg/kg d18-26 i.p., sacrificed day 50): 7/10
- lethality ([5]; 35 mg/kg i.p. Q2Dx5 from day 8): 0/10
- mice survived ([5]; 35 mg/kg i.p. Q2Dx5 from day 8): 10/10
- mice with tumor non-detectable on day 18 ([5]; 35 mg/kg i.p. Q2Dx5 from day 8): 3 out of 10
- tumor volume reduction ([5]; 35 mg/kg i.p. Q2Dx5 from day 8): 98%
- Toxicity Death ([5]; 35 mg/kg i.p. Q2Dx5 from day 9): 0/6
- Tumor Disapp. ([5]; 35 mg/kg i.p. Q2Dx5 from day 9): 3/6
- Average Body Weight Change [5, 14]: -1.7 g
- Average Tumor Size (T/C) [5, 14]: 0.35
- Average Body Weight Change [5, 15]: -2.1 g
- Average Tumor Size (T/C) [5, 15]: 0.14
- Average Body Weight Change [5, 16]: -2.1 g
- Average Tumor Size (T/C) [5, 16]: 0.04
- Average Body Weight Change [5, 17]: -2.4 g
- Average Tumor Size (T/C) [5, 17]: 0.02
- # Mice Died ([5]; 35 mg/kg i.p. d8,10,12,14,16): 3/10
- Tumor Disappearance ([5]; 35 mg/kg i.p. d8,10,12,14,16): 0/10
- Average Body Weight Change [5, 18]: -0.1 g
- Average Tumor Volume (T/C) [5, 18]: 0.42
- Average Body Weight Change [5, 19]: +0.7 g
- Average Tumor Volume (T/C) [5, 19]: 0.28
- Average Body Weight Change [5, 20]: -0.3 g
- Average Tumor Volume (T/C) [5, 20]: 0.07
- Average Body Weight Change [5, 21]: -1.7 g
- Average Tumor Volume (T/C) [5, 21]: 0.04
- Average Body Weight Change [5, 22]: -1.6 g
- Average Tumor Volume (T/C) [5, 22]: 0.02
- # Died ([5]; 40 mg/kg i.p. d18-26, extended after d8-16): 0/10
- Average Tumor Disappearance Duration (Day) ([5]; 40 mg/kg i.p. d18-26, extended after d8-16, (5/10)): 44(5/10) Day
- Average Body Weight Change ([5]; 40 mg/kg i.p. d18-26, extended after d8-16, day 20): -1.7 g
